# From ChEMBL document CHEMBL1149019, “Antineoplastic agents, 120. Pancratium littorale” (1986)
# Tests used:
# Format in all cases: functional
# P388 [1] = assay: In vivo cytotoxicity against mouse P388 cells at 12.5 mg/kg relative to control
# [2] = Cytotoxicity against mouse 9PS cells; settings: read-out: ED50 (the source's name)
# P388 [3] = assay: In vivo cytotoxicity against mouse P388 cells at 25 mg/kg relative to control
# P388 [4] = assay: In vivo cytotoxicity against mouse P388 cells at 0.75 to 6 mg/kg relative to control; settings: dose mg/kg 0.75-6
# M5076 [5] = assay: In vivo antitumor activity against mouse M5076 cells assessed as life extension at 0.38 to 3 mg/kg; settings: dose mg/kg 0.38-3
# M5076 [6] = assay: In vivo cytotoxicity against mouse M5076 cells at 0.38 to 3 mg/kg relative to control; settings: dose mg/kg 0.38-3
# P388 [7] = assay: In vivo antitumor activity against mouse P388 cells assessed as life extension at 0.75 to 12.5 mg/kg; settings: dose mg/kg 0.75-12.5
Compound,T/C (P388 [1]),EC50 [2] [µg/mL],T/C (P388 [3]),T/C (P388 [4]),Activity (M5076 [5]) [%],T/C (M5076 [6]),Activity (P388 [7]) [%]
O=C1N[C@@H]2C(=C[C@H](O)[C@@H](O)[C@H]2O)c2cc3c(cc21)OCO3,161,0.02,161,–,–,–,–
O=C1N[C@H]2[C@H](O)[C@H](O)[C@@H](O)[C@H](O)[C@@H]2c2cc3c(c(O)c21)OCO3 [PANCRATISTATIN],206,0.01,–,138,53,153,38
